This passage reports LD50 results from patent publication US4340594A, “Fat emulsion containing steroid” (The Green Cross Corporation, priority 1980, dated 1982).

One data set in a line: in vivo. Particulars: mouse, iv.
The next data set relates to dd strain mice. The following applies: mouse, in vivo, iv.

Each structure is given as a SMILES string.

Broadly, the LD50 is the dose at which mortality reaches 50%. A higher LD50 goes with lower toxicity.

Consider `CCCCCCCCCCCCCCCC(=O)OCC(=O)[C@@]1(O)[C@H](C)C[C@H]2[C@@H]3CCC4=CC(=O)C=C[C@]4(C)[C@@]3(F)[C@@H](O)C[C@@]21C` [dexamethasone palmitate], for which the LD50 in “in vivo” was 580 mg/kg; in the data set on dd strain mice, 420 mg/kg.
The corresponding values for `C[C@@H]1C[C@H]2[C@@H]3CCC4=CC(=O)C=C[C@]4(C)[C@@]3(F)[C@@H](O)C[C@]2(C)[C@@]1(O)C(=O)COP(=O)(O)O` [dexamethasone phosphate] are 140 mg/kg and 115 mg/kg.
